Results reported in PubChem BioAssay AID248 (DTP/NCI, 2004).
Inconclusive results and toxic doses are left out. Rule as the data show it: active = T/C of 150% or more; inactive = T/C below 125%.

System: L1210 leukemia ip in BDF1 mice, survival T/C
Assay: NCI In Vivo Anticancer Drug Screen. Data for tumor model L1210 Leukemia (intraperitoneal) in B6D2F1 (BDF1) mice
Conditions: endpoint: mean survival time, higher = longer survival
Method in brief: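 Read-out is survival time, reported as the treated-group measurement over the vehicle-control measurement.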

[1] = dose: 100.0 mg/kg/injection, schedule: Q01DX001 (ip), vehicle: saline
[2] = dose: 200.0 mg/kg/injection, schedule: Q01DX001 (ip), vehicle: saline

Measured: T/C

CCNS(=O)(=O)c1ccc(Cl)c([N+](=O)[O-])c1
inactive: dose: 100.0 mg/kg/injection, schedule: Q01DX001 (ip), vehicle: Klucel (hydroxypropylcellulose) (HPC) 101 % of control | dose: 200.0 mg/kg/injection, schedule: Q01DX001 (ip), vehicle: Klucel (hydroxypropylcellulose) (HPC) 102 % of control | dose: 400.0 mg/kg/injection, schedule: Q01DX001 (ip), vehicle: Klucel (hydroxypropylcellulose) (HPC) 107 % of control

Nc1nc(N)c(N=Nc2ccc(C(=O)O)cc2)c(=O)[nH]1
inactive: [1] 105 % of control | [2] 106 % of control

C=C1C2CCC3(C)C(c4ccoc4)OC(=O)CC13OC1CC(=O)C(C)(C)C(CC(=O)OC)C12C (configuration not stated)
inactive: [1] 97 % of control | [2] 96 % of control | dose: 400.0 mg/kg/injection, schedule: Q01DX001 (ip), vehicle: saline 114 % of control

O=C(Nc1cc(Cl)ccc1Oc1cc(Cl)c(Cl)cc1S(=O)(=O)O)Nc1cc(Cl)ccc1Oc1cc(Cl)c(Cl)cc1S(=O)(=O)O
inactive: dose: 18.75 mg/kg/injection, schedule: Q01DX009 (ip), vehicle: saline 97 % of control | dose: 37.5 mg/kg/injection, schedule: Q01DX009 (ip), vehicle: saline 90 % of control | dose: 75.0 mg/kg/injection, schedule: Q01DX001 (ip), vehicle: saline 106 % of control | dose: 75.0 mg/kg/injection, schedule: Q01DX009 (ip), vehicle: saline 94 % of control | dose: 150.0 mg/kg/injection, schedule: Q01DX001 (ip), vehicle: saline 97 % of control

N=C(N)SCCON1C(=O)c2ccccc2C1=O
inactive: dose: 50.0 mg/kg/injection, schedule: Q01DX001 (ip), vehicle: saline 102 % of control | [1] 108 % of control | [2] 112 % of control

Cc1cc(=O)n(-c2ccccc2)n1C.[Cl-].[Cl-].[Cl-].[Cl-].[Pt+2]
inactive: dose: 100.0 mg/kg/injection, schedule: Q04DX003 (ip), vehicle: saline with Tween-80 97 % of control | dose: 200.0 mg/kg/injection, schedule: Q04DX003 (ip), vehicle: saline with Tween-80 103 % of control | dose: 400.0 mg/kg/injection, schedule: Q04DX003 (ip), vehicle: saline with Tween-80 105 % of control

CCOC(=O)/C(O)=C\c1n[n+]([O-])ccc1Cl
inactive: dose: 100.0 mg/kg/injection, schedule: Q04DX002 (ip), vehicle: Klucel (hydroxypropylcellulose) (HPC) 104 % of control | dose: 200.0 mg/kg/injection, schedule: Q04DX002 (ip), vehicle: Klucel (hydroxypropylcellulose) (HPC) 112 % of control | dose: 400.0 mg/kg/injection, schedule: Q04DX002 (ip), vehicle: Klucel (hydroxypropylcellulose) (HPC) 93 % of control
